US9884863B2, “STAT3 inhibitor” (Board of Regents, The University of Texas System, priority 2013, dated 2018)

Tested on: STAT family, STAT3-dependent genes and JAKs in MDA-MB-231 cells
Assay: Western blot analysis, MDA-MB-231 cells
Assay type: cell-based, human
Conditions: 24 h; Example 3 numbering
Method: Blocking STAT3 signaling in many different tumor cells leads to induce growth arrest and apoptosis (Turkson, J. et al., 2000; Bromberg, J., 2002; Zhang, X. et al., 2012).
Western Blot Analysis. Protein levels were determined by Western blot using the previously described methods (Shen, Q. et al., 2008). Total cell lysates were prepared from MDA-MB-231 cells. Protein concentrations were measured using the BCA Protein Assay Reagent (Pierce, Rockford, Ill., USA). Equal amounts of total cellular protein extract (40 μg) were resuspended in denaturing sample loading buffer (0.5 M Tris-HCl, pH 6.8, 10% SDS, 0.1% bromophenol blue, and 20% glycerol), separated by electrophoresis on a 10% polyacrylamide SDS-PAGE gel and then electrophoretically transferred to a nitrocellulose membrane (Thermo Scientific, Ill., USA) at 100 Volts for 1 h at 4° C. The membrane was then incubated in a blocking solution containing 5% non-fat milk and 1% Tween 20 in TBS for 1 h. The membrane was then incubated with antibodies specific for: phospho-STAT3-pY705 (1:3000, Epitomics, #2236-1), STAT3 (1:2000, Cell Signaling, #4904), Caspase-3-cleaved (1:2000, Epitomics, #1476-1), Cyclin D1 (1:10000, Epitomics, #2261-1) and β-actin (1:10000, Sigma, clone AC-15). An anti-rabbit or anti-mouse secondary antibody (Amersham, Piscataway, N.J.) was used at 1:4000 dilution. The Western blotted bands were visualized using ECL procedure according to the manufacturer's instructions (Amersham).

O=C(Nc1ccc([N+](=O)[O-])cc1Cl)c1cc(Cl)ccc1O [niclosamide, reference compound]
phosphorylated STAT3 at Tyr-705 (Example 3): suppressed | total STAT3 level (Example 3): reduced
